US7812037B2, “Dual antiplatelet/anticoagulant pyridoxine analogs” (Medicure International, Inc., priority 2004, dated 2010)

How the values were obtained:
[1] = test system: platelets (platelet rich plasma); test: Inhibition of platelet aggregation, collagen as agonist; type: cell-based; settings: human PRP; for inhibition at 50 µM: compound 50 μM; for inhibition at 30 µM: compound 30 μM; for inhibition at 100 µM: compound 100 μM
Procedure: (§1) Platelet rich plasma (PRP) was obtained by drawing whole blood from normal human donors (not on any medication) into sodium citrate tubes (3.2%), and centrifuging at 160×g for about 10 minutes. Platelet poor plasma (PPP) was obtained by centrifuging the remainder of the sample after the platelets were removed at 800×g for about 10 minutes. The PRP was adjusted to a count of 280×10^9/L using a mixture of PRP and PPP. The platelets (200 μL) were incubated with the test compounds (25 μL) adjusted to various concentrations (5, 10, 20, 30, 50, and 100 μM) for about 30 minutes at room temperature (approximate final platelet count in the incubation mixture of 250×10^9/L). The samples were incubated for about 3 minutes at about 37° C., and then transferred to the mixing wells of a Chrono-log 4 channel aggregometer (Chrono-log Corp., Havertown, Pa.). After baselines were established, agonist (25 μL of 40 μM ADP (Sigma, St. Louis, Mo.) or 25 μL of 50 μg/mL and 10 μg/mL collagen (Helena Laboratories, Beaumont, Tex.) or 25 μL of 120 μM thrombin receptor activating peptide (TRAP) (Sigma)) was then added. Aggregation was monitored for 5 minutes at 37° C. with stirring (1000 rpm). The amplitude and slope of each tracing were calculated to determine the amount of aggregation. Control samples were performed using only solvent. The % reduction in aggregation was calculated for each sample compared to the proper solvent control.

[2] = test system: platelets (platelet rich plasma); test: Inhibition of platelet aggregation, ADP as agonist; type: cell-based; settings: ADP 4 μM, human PRP, read-out: % Reduction in Aggregation ADP (4 μM); for inhibition at 30 µM: compound 30 μM
Procedure: as §1

[3] = test system: platelets (platelet rich plasma); test: Inhibition of platelet aggregation, thrombin receptor activating peptide (TRAP) as agonist; type: cell-based; settings: TRAP 12 μM, human PRP, read-out: % Reduction in Aggregation TRAP (12 μM); for inhibition at 30 µM: compound 30 μM
Procedure: as §1

Human FXa = biological target: T1, Human FXa (Homo sapiens, UniProt P00742); test: Determination of Anti-Factor Xa (Fxa) Activity; type: biochemical; settings: competitive inhibition; substrate Pefachrome Xa; pH 7.5
T1 construct: Determination of Anti-Factor Xa (Fxa) Activity; purchased Calbiochem
Procedure: The test compounds (40 μL) adjusted to various concentrations (0.25 to 100 μM) were incubated with 5 nM Human FXa (Calbiochem, San Diego, Calif.) enzyme in 125 mM Tris [Tris(hydroxymethyl)aminomethane] buffer (pH 7.5) containing 375 mM sodium chloride and 0.25% polyethylene glycol (MW 8000) (80 μL) at room temperature for about 30 minutes. 80 μL of synthetic substrate Pefachrome® Xa (Pentapharm, Basel, Switzerland), adjusted to various concentrations from 125 μM to 1.25 mM, was added. The activity was measured at 37° C. by monitoring absorbance at 405 nm for 15 minutes using a FLUOstar OPTIMA™ (BMG Labtech GmbH, Offenburg, Germany) microplate reader. Control sample was the solvent alone. Each test compound was analyzed twice using 4 concentrations of compound plus control (in duplicate) with 5 concentrations of substrate (50, 100, 200, 300 and 500 μM). The specific activity (ΔA405/min/nM enzyme) was determined for each data point. The Ki for competitive inhibition was then determined for each test compound using the Enzyme Kinetics module of Sigmaplot 8.0 (SPSS Inc., Chicago, Ill.).

Human Thrombin = biological target: T2, Human Thrombin (Homo sapiens, UniProt P00734); test: Determination of Anti-Thrombin (Factor IIa) Activity; type: biochemical; settings: competitive inhibition; substrate Pefachrome Thr; pH 8.3
T2 construct: Determination of Anti-Thrombin (Factor IIa) Activity; purchased Calbiochem
Procedure: The test compounds (40 μL) adjusted to various concentrations (0.25 to 100 μM) were incubated with Human Thrombin (Calbiochem) enzyme (5 nM) in 31 mM Tris buffer (pH 8.3) containing 81 mM sodium chloride and 0.63% bovine serum albumin (fraction V)(80 μL) at room temperature for about 30 minutes. 80 μL of Pefachrome® Thr (Pentapharm) was adjusted to various concentrations, from 62.5 μM to 1.25 mM. The activity was measured at about 37° C. by monitoring absorbance at 405 nm for about 15 minutes using a FLUOstar OPTIMA™. Control sample was the solvent alone. Each test compound was analyzed twice using 4 concentrations of compound plus control (in duplicate) with 5 concentrations of substrate (50, 100, 200, 300 and 500 μM). The specific activity (ΔA405/min/nM enzyme) was determined for each data point. The Ki for competitive inhibition was then determined for each test compound using the Enzyme Kinetics module of Sigmaplot 8.0 (SPSS).

[4] = collagen 1 μg/mL, read-out: % Reduction in Aggregation Collagen (1 μg/mL)
[5] = collagen 5 μg/mL, read-out: % Reduction in Aggregation Collagen (5 μg/mL)

T1 sequence (P00742 235-488 limits assumed): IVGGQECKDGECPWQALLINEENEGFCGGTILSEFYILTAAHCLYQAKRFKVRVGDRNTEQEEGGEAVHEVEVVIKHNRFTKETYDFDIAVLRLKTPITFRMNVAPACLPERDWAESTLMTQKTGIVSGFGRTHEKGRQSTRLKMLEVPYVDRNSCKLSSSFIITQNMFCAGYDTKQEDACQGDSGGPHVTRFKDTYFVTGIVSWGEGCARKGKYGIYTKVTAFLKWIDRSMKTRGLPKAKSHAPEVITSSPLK
T1 sequence (P00742 41-179 partner limits assumed): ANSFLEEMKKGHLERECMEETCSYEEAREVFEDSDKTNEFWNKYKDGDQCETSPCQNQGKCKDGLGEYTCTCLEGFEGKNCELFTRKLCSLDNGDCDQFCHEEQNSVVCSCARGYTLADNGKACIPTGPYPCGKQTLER

Ki (Human FXa) | Ki (Human Thrombin) | SMILES | also measured
– | – | Cc1ncc(CO)c(CNc2ccc(C(=N)N)cc2)c1OCc1ccc(C(=N)N)cc1 [Compound 3, 4-{[3-(4-Carbamimidoyl-benzyloxy)-5-hydroxymethyl-2-methyl-pyridin-4-ylmethyl]-amino}-benzamidine] | inhibition at 50 µM [1, 4]: 20%; inhibition at 50 µM [1, 5]: 0%; inhibition at 50 µM ([2]; compound 50 μM): 27%; inhibition at 50 µM ([3]; compound 50 μM): 81%
2300 nM | 10300 nM | Cc1ncc(CNc2ccc(-c3ccc(C(=N)N)cc3)cc2)c(CO)c1OCc1ccc(C(=N)N)cc1 [Compound 6, 4′-{[5-(4-Carbamimidoyl-benzyloxy)-4-hydroxymethyl-6-methyl-pyridin-3-ylmethyl]-amino}-biphenyl-4-carboxamidine] | inhibition at 30 µM [1, 4]: 100%; inhibition at 30 µM [1, 5]: 44%; inhibition at 30 µM [2]: 89%; inhibition at 30 µM [3]: 86%
11000 nM | 1650 nM | Cc1ncc(COc2ccc(C(=N)N)cc2)c(CO)c1OCc1ccc(C(=N)N)cc1 [Compound 15, 4-(5-(4-Carbamimidoyl-benzyloxy)-4-hydroxymethyl-6-methyl-pyridin-3-ylmethoxy)-benzamidine] | –
19000 nM | 510 nM | Cc1ncc(COc2ccc(C(=N)N)cc2)c(C(F)F)c1OCc1ccc(C(=N)N)cc1 [Compound 21, 4-[4,4-Difluoromethyl-6-methyl-5-(4-carbamimidoyl-benzyloxy)-pyridin-3-ylmethoxy]-benzamidine] | –
– | – | Cc1ncc(CNc2ccc(-c3ccc(C(=N)N)cc3)cc2)c(CNCCCCCC(=O)O)c1O [Compound 46, 6-({5-[(4′-Carbamimidoyl-biphenyl-4-ylamino)-methyl]-3-hydroxy-2-methyl-pyridin-4-ylmethyl}-amino)-hexanoic acid] | inhibition at 100 µM [1, 4]: 35%; inhibition at 100 µM [1, 5]: 19%; inhibition at 100 µM ([2]; compound 100 μM): 46%; inhibition at 100 µM ([3]; compound 100 μM): 29%
– | – | Cc1ncc(CNc2ccc(C(=N)N)cc2)c(CNCCCCCC(=O)O)c1OCc1ccc(C(=N)N)cc1 [Compound 54, 6-({3-(4-Carbamimidoyl-benzyloxy)-5-[(4-carbamimidoyl-phenylamino)-methyl]-2-methyl-pyridin-4-ylmethyl}-amino)-hexanoic acid] | inhibition at 30 µM [1, 4]: 15%; inhibition at 30 µM [1, 5]: 13%; inhibition at 30 µM [2]: 23%; inhibition at 30 µM [3]: 53%
– | – | Cc1ncc(CNc2ccc(-c3ccc(C(=N)N)cc3)cc2F)c(CO)c1OCc1ccc(C(=N)N)cc1 [Compound 63, 4′-{[5-(4-Carbamimidoyl-benzyloxy)-4-hydroxymethyl-6-methyl-pyridin-3-ylmethyl]-amino}-3′-fluoro-biphenyl-4-carboxamidine] | inhibition at 30 µM [1, 4]: 95%; inhibition at 30 µM [1, 5]: 41%; inhibition at 30 µM [2]: 95%; inhibition at 30 µM [3]: 94%
9000 nM | 700 nM | Cc1ncc(COc2ccc(C(=N)N)cc2)c(C)c1OCc1cccc(C(=N)N)c1 [Compound 70, 4-[4,6-Dimethyl-5-(3-carbamimidoyl-benzyloxyl)-pyridin-3-ylmethoxy]-benzamidine] | –
3500 nM | 720 nM | Cc1ncc(CNC(=O)c2ccc(C(=N)N)cc2)c(CO)c1OCc1ccc(C(=N)N)cc1 [Compound 73, 4-Carbamimidoyl-N-[5-(4-carbamimidoyl-benzyloxy)-4-hydroxymethyl-6-methyl-pyridin-3-ylmethyl]-benzamide] | –
961 nM | 47 nM | CCc1c(CNc2ccc(C(=N)N)cc2)cnc(C)c1OCc1cccc(C(=N)N)c1 [Compound 103, 3-{5-[(4-Amidino-phenylamino)-methyl]-4-ethyl-2-methyl-pyridin-3-yloxymethyl}-benzamidine] | –
378 nM | – | Cc1ncc(CNc2ccc(C(=N)N)cc2)c(CF)c1OCc1cccc(C(=N)N)c1 [Compound 108, 4-{[4-Fluoromethyl-5-(3-amidine-benzyloxy)-6-methyl-pyridin-3-ylmethyl]-amino}-benzamidine] | –
503 nM | 333 nM | Cc1ncc(CNc2ccc(C(=N)N)cc2)cc1OCc1cccc(C(=N)N)c1 [Compound 136, 4-((5-(3-amidinebenzyloxy)-6-methylpyridin-3-yl)methylamino)benzamidine] | –
412 nM | 39 nM | Cc1c(CNc2ccc(C(=N)N)cc2)cnc(CO)c1OCc1cccc(C(=N)N)c1 [Compound 138, 4-{[5-(3-Amidine-benzyloxy)-6-hydroxymethyl-4-methyl-pyridin-3-ylmethyl]-amino}-benzamidine] | –
423 nM | 17 nM | Cc1c(CNc2ccc(C(=N)N)cc2)cnc(CF)c1OCc1cccc(C(=N)N)c1 [Compound 140, 4-{[5-(3-Amidine-benzyloxy)-6-fluoro-methyl-4-methyl-pyridin-3-ylmethyl]-amino}-benzamidine] | –
589 nM | 186 nM | Cc1c(CNc2ccc(C(=N)N)cc2)cnc(C=O)c1OCc1cccc(C(=N)N)c1 [Compound 142, 4-{[5-(3-Amidine-benzyloxy)-6-formyl-4-methyl-pyridin-3-ylmethyl]-amino}-benzamidine] | –
473 nM | 9 nM | N=C(N)c1ccc(NCc2cnc(CF)c(OCc3cccc(C(=N)N)c3)c2CF)cc1 [Compound 148, 4-{[4,6-Bis-fluoromethyl-5-(3-amidine-benzyloxy)-pyridin-3-ylmethyl]-amino}-benzamidine] | –
665 nM | 12 nM | N=C(N)c1ccc(COc2c(CF)ncc(CNc3ccc(C(=N)N)cc3)c2CF)cc1 [Compound 153, 4-{5-[(4-Carbamimidoyl-phenylamino)-methyl]-2,4-bis-fluoromethyl-pyridin-3-yloxymethyl}-benzamidine] | –
380 nM | 41 nM | Cc1nc(C2CC2)c(CNc2ccc(C(=N)N)cc2)c(CO)c1OCc1cccc(C(=N)N)c1 [Compound 172, 3-{5-[(4-Carbamimidoyl-phenylamino)-methyl]-6-cyclopropyl-4-hydroxymethyl-2-methyl-pyridin-3-yloxymethyl}-benzamidine] | –
1080 nM | 37 nM | Cc1nc(C2CC2)c(CNc2ccc(C(=N)N)cc2)c(CO)c1OCc1ccc(C(=N)N)cc1 [Compound 174, 4-{5-[(4-Carbamimidoyl-phenylamino)-methyl]-6-cyclopropyl-4-hydroxymethyl-2-methyl-pyridin-3-yloxymethyl}-benzamidine] | –
